In PubChem BioAssay (NCI):
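Interpolation was linear, between the two tested concentrations surrounding the appropriate level; five concentrations were tested over 48 hours in 96-well plates. At the TGI there is no net growth.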

Tests used:
Assay in all cases: DTP human tumour cell line panel, 48 h
[1] = tested on: NCI-H226 lung
[2] = tested on: SF-295 CNS
[3] = tested on: SK-OV-3 ovarian
[4] = tested on: SK-MEL-28 melanoma
[5] = tested on: 786-0 renal
[6] = tested on: T-47D breast
[7] = tested on: HT29 colon
[8] = tested on: CAKI-1 renal
[9] = tested on: HS 578T breast
[10] = tested on: UACC-257 melanoma
[11] = tested on: HCT-15 colon
[12] = tested on: RXF 393 renal
[13] = tested on: OVCAR-5 ovarian
[14] = tested on: ACHN renal
[15] = tested on: EKVX NSCLC
[16] = tested on: SF-539 CNS
[17] = tested on: OVCAR-4 ovarian
[18] = tested on: A498 renal
[19] = tested on: HL-60(TB) leukemia
[20] = tested on: COLO 205 colon
[21] = tested on: SNB-75 CNS
[22] = tested on: NCI-H23 lung
[23] = tested on: HOP-62 NSCLC
[24] = tested on: HOP-92 NSCLC
[25] = tested on: UACC-62 melanoma
[26] = tested on: RPMI-8226 leukemia
[27] = tested on: SK-MEL-5 melanoma
[28] = tested on: MCF7 breast
[29] = tested on: SNB-19 CNS
[30] = tested on: BT-549 breast
[31] = tested on: HCT-116 colon
[32] = tested on: TK-10 renal
[33] = tested on: OVCAR-3 ovarian
[34] = tested on: MOLT-4 leukemia
[35] = tested on: SR leukemia
[36] = tested on: CCRF-CEM leukemia
[37] = tested on: NCI-H522 lung
[38] = tested on: SK-MEL-2 melanoma
[39] = tested on: MDA-MB-435
[40] = tested on: LOX IMVI melanoma
[41] = tested on: SW-620 colon
[42] = tested on: U251 CNS
[43] = tested on: UO-31 renal
[44] = tested on: NCI/ADR-RES ovarian
[45] = tested on: PC-3 prostate
[46] = tested on: MDA-N
[47] = tested on: MALME-3M melanoma
[48] = tested on: KM12 colon
[49] = tested on: NCI-H460 lung
[50] = tested on: M14 melanoma
[51] = tested on: SF-268 CNS
[52] = tested on: IGROV1 ovarian
[53] = tested on: K-562 leukemia
[54] = tested on: A549 NSCLC
[55] = tested on: OVCAR-8 ovarian
[56] = tested on: MDA-MB-231 breast
[57] = tested on: SN12C renal
[58] = tested on: HCC-2998 colon
[59] = tested on: DU-145 prostate

c1ccc(C2=Nc3nc4ccccc4n3C(c3ccccc3)C2)cc1 (configuration not stated)
TGI [1]: > 100 µM
TGI [2]: > 100 µM
TGI [3]: > 100 µM
TGI [4]: > 100 µM
TGI [5]: > 100 µM
TGI [6]: > 100 µM
TGI [7]: > 100 µM
TGI [8]: > 100 µM
TGI [9]: > 100 µM
TGI [10]: > 100 µM
TGI [11]: > 100 µM
TGI [12]: > 100 µM
TGI [13]: > 100 µM
TGI [14]: > 100 µM
TGI [15]: > 100 µM
TGI [16]: > 100 µM
TGI [17]: > 100 µM
TGI [18]: > 100 µM
TGI [19]: > 100 µM
TGI [20]: > 100 µM
TGI [21]: > 100 µM
TGI [22]: > 100 µM
TGI [23]: > 100 µM
TGI [24]: > 100 µM
TGI [25]: > 100 µM
TGI [26]: > 100 µM
TGI [27]: > 100 µM
TGI [28]: > 100 µM
TGI [29]: > 100 µM
TGI [30]: > 100 µM
TGI [31]: > 100 µM
TGI [32]: > 100 µM
TGI [33]: > 100 µM
TGI [34]: > 100 µM
TGI [35]: > 100 µM
TGI [36]: > 100 µM
TGI [37]: > 100 µM
TGI [38]: > 100 µM
TGI [39]: > 100 µM
TGI [40]: > 100 µM
TGI [41]: > 100 µM
TGI [42]: > 100 µM
TGI [43]: > 100 µM
TGI [44]: > 100 µM
TGI [45]: > 100 µM
TGI [46]: > 100 µM
TGI [47]: > 100 µM
TGI [48]: > 100 µM
TGI [49]: > 100 µM
TGI [50]: > 100 µM
TGI [51]: > 100 µM
TGI [52]: > 100 µM
TGI [53]: > 100 µM
TGI [54]: > 100 µM
TGI [55]: > 100 µM
TGI [56]: > 100 µM

O=c1[nH]c(=O)n(C2OC(CO)C(O)C2O)c2c1CCCC2 (configuration not stated)
TGI [1]: > 100 µM
TGI [2]: > 100 µM
TGI [3]: > 100 µM
TGI [4]: > 100 µM
TGI [5]: > 100 µM
TGI [6]: > 100 µM
TGI [7]: > 100 µM
TGI [8]: > 100 µM
TGI [9]: > 100 µM
TGI [10]: > 100 µM
TGI [11]: > 100 µM
TGI [12]: > 100 µM
TGI [13]: > 100 µM
TGI [14]: > 100 µM
TGI [15]: > 100 µM
TGI [16]: > 100 µM
TGI [17]: > 100 µM
TGI [18]: > 100 µM
TGI [19]: > 100 µM
TGI [20]: > 100 µM
TGI [21]: > 100 µM
TGI [57]: > 100 µM
TGI [22]: > 100 µM
TGI [58]: > 100 µM
TGI [23]: > 100 µM
TGI [24]: > 100 µM
TGI [25]: > 100 µM
TGI [26]: > 100 µM
TGI [27]: > 100 µM
TGI [28]: > 100 µM
TGI [29]: > 100 µM
TGI [31]: > 100 µM
TGI [32]: > 100 µM
TGI [33]: > 100 µM
TGI [34]: > 100 µM
TGI [35]: > 100 µM
TGI [36]: > 100 µM
TGI [37]: > 100 µM
TGI [38]: > 100 µM
TGI [39]: > 100 µM
TGI [40]: > 100 µM
TGI [41]: > 100 µM
TGI [42]: > 100 µM
TGI [43]: > 100 µM
TGI [44]: > 100 µM
TGI [45]: > 100 µM
TGI [46]: > 100 µM
TGI [47]: > 100 µM
TGI [48]: > 100 µM
TGI [49]: > 100 µM
TGI [59]: > 100 µM
TGI [50]: > 100 µM
TGI [51]: > 100 µM
TGI [52]: > 100 µM
TGI [53]: > 100 µM
TGI [54]: > 100 µM
TGI [55]: > 100 µM
TGI [56]: > 100 µM

Cc1ccsc1/C=N/Nc1cc(C)c2cccc(C)c2n1
TGI [1]: > 100 µM
TGI [2]: > 100 µM
TGI [3]: > 100 µM
TGI [4]: > 100 µM
TGI [5]: > 100 µM
TGI [6]: > 100 µM
TGI [7]: > 100 µM
TGI [8]: > 100 µM
TGI [9]: > 100 µM
TGI [10]: > 100 µM
TGI [13]: > 100 µM
TGI [14]: > 100 µM
TGI [15]: > 100 µM
TGI [17]: > 100 µM
TGI [18]: > 100 µM
TGI [19]: 71.2 µM
TGI [20]: > 100 µM
TGI [21]: > 100 µM
TGI [57]: > 100 µM
TGI [22]: > 100 µM
TGI [58]: > 100 µM
TGI [23]: > 100 µM
TGI [24]: > 100 µM
TGI [25]: > 100 µM
TGI [28]: > 100 µM
TGI [29]: > 100 µM
TGI [30]: > 100 µM
TGI [32]: > 100 µM
TGI [33]: > 100 µM
TGI [38]: > 100 µM
TGI [39]: > 100 µM
TGI [41]: > 100 µM
TGI [42]: > 100 µM
TGI [44]: > 100 µM
TGI [45]: > 100 µM
TGI [46]: > 100 µM
TGI [48]: > 100 µM
TGI [59]: > 100 µM
TGI [50]: > 100 µM
TGI [51]: > 100 µM
TGI [52]: > 100 µM
TGI [54]: > 100 µM
TGI [55]: > 100 µM

CC12CCC(C(=O)O1)C(C)(C)O2 (configuration not stated)
TGI [1]: > 100 µM
TGI [2]: > 100 µM
TGI [3]: > 100 µM
TGI [4]: > 100 µM
TGI [5]: > 100 µM
TGI [7]: > 100 µM
TGI [8]: > 100 µM
TGI [9]: > 100 µM
TGI [10]: > 100 µM
TGI [11]: > 100 µM
TGI [12]: > 100 µM
TGI [13]: > 100 µM
TGI [14]: > 100 µM
TGI [15]: > 100 µM
TGI [16]: > 100 µM
TGI [17]: > 100 µM
TGI [18]: > 100 µM
TGI [19]: > 100 µM
TGI [21]: > 100 µM
TGI [57]: > 100 µM
TGI [22]: > 100 µM
TGI [58]: > 100 µM
TGI [23]: > 100 µM
TGI [24]: > 100 µM
TGI [25]: > 100 µM
TGI [26]: > 100 µM
TGI [28]: > 100 µM
TGI [29]: > 100 µM
TGI [30]: > 100 µM
TGI [31]: > 100 µM
TGI [32]: > 100 µM
TGI [33]: > 100 µM
TGI [34]: > 100 µM
TGI [35]: > 100 µM
TGI [36]: > 100 µM
TGI [37]: > 100 µM
TGI [38]: > 100 µM
TGI [39]: > 100 µM
TGI [40]: > 100 µM
TGI [41]: > 100 µM
TGI [42]: > 100 µM
TGI [43]: > 100 µM
TGI [44]: > 100 µM
TGI [45]: > 100 µM
TGI [46]: > 100 µM
TGI [47]: > 100 µM
TGI [48]: > 100 µM
TGI [49]: > 100 µM
TGI [50]: > 100 µM
TGI [51]: > 100 µM
TGI [52]: > 100 µM
TGI [53]: > 100 µM
TGI [54]: > 100 µM
TGI [55]: > 100 µM
TGI [56]: > 100 µM
